Assay results taken from PubChem BioAssay AID2060898 (Molecular Pharmacology Branch, DTP, NCI, 2025).

Test system: 616215-338-R-J1-PDC complex spheroid viability
Test: Anticancer human tumor 616215-338-R-J1-PDC patient-derived colon adenocarcinoma cell line growth inhibition [RAS]
Settings: for IC50: curve of first compound; for viability, T/C: stronger effect = lower value
Procedure, shortened: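 Multi-cell-type spheroids: tumor cells plus HUVEC endothelial cells and mesenchymal stem cells. RAS-pathway inhibitors were combined with targeted agents, each dosed in half-log steps down from clinical Cmax, or from 10 microM when Cmax was unknown.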

[1] = second compound 0.0316 µM, first compound 0.0316 µM
[2] = second compound 0.0316 µM, first compound 0.1 µM
[3] = second compound 0.0316 µM, first compound 0.316 µM
[4] = second compound 0.0316 µM, first compound 1 µM
[5] = second compound 0.1 µM, first compound 0.0316 µM
[6] = second compound 0.1 µM, first compound 0.1 µM
[7] = second compound 0.1 µM, first compound 0.316 µM
[8] = second compound 0.1 µM, first compound 1 µM
[9] = second compound 0.316 µM, first compound 0.0316 µM
[10] = second compound 0.316 µM, first compound 0.1 µM
[11] = second compound 0.316 µM, first compound 0.316 µM
[12] = second compound 0.316 µM, first compound 1 µM
[13] = second compound 1 µM, first compound 0.0316 µM
[14] = second compound 1 µM, first compound 0.1 µM
[15] = second compound 1 µM, first compound 0.316 µM
[16] = second compound 1 µM, first compound 1 µM
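Note: spheroids exposed to agents for seven days before viability readout.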
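Throughout, for viability, T/C: 100% = DMSO vehicle control viability.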

For `C=CC(=O)N1CCN(c2nc(OCC3CCCN3C)nc3c(F)c(-c4nc(N)cc(C)c4C(F)(F)F)c(Cl)cc23)C(C)C1` (centres undefined) + C#Cc1c(F)ccc2cc(O)cc(-c3ncc4c(N5CC6CCC(C5)N6)nc(OCC56CCCN5CC(F)C6)nc4c3F)c12, the IC50 (second compound 0.0316 µM) was > 1000 nM, the IC50 (second compound 0.1 µM) was > 1000 nM and the IC50 (second compound 0.316 µM) was > 1000 nM. The IC50 (second compound 1 µM) was > 1000 nM, the IC50 (second compound 3.16 µM) was > 1000 nM and the IC50 (second compound 10 µM) was > 1000 nM. It also gave a viability, T/C (second compound 0.0316 µM, first compound 0.00316 µM) of 107%, a viability, T/C (second compound 0.0316 µM, first compound 0.01 µM) of 112% and a viability, T/C [1] of 101%. For the same molecule, the viability, T/C [2] was 106%, the viability, T/C [3] was 100% and the viability, T/C [4] was 104%. The viability, T/C (second compound 0.1 µM, first compound 0.00316 µM) was 121%, the viability, T/C (second compound 0.1 µM, first compound 0.01 µM) was 105% and the viability, T/C [5] was 109%. The viability, T/C [6] was 107%, the viability, T/C [7] was 108% and the viability, T/C [8] was 102%. For the same molecule, the viability, T/C (second compound 0.316 µM, first compound 0.00316 µM) was 112%, the viability, T/C (second compound 0.316 µM, first compound 0.01 µM) was 104% and the viability, T/C [9] was 109%. For the same molecule, the viability, T/C [10] was 112%, the viability, T/C [11] was 107% and the viability, T/C [12] was 112%. It also gave a viability, T/C (second compound 1 µM, first compound 0.00316 µM) of 122%, a viability, T/C (second compound 1 µM, first compound 0.01 µM) of 123% and a viability, T/C [13] of 114%. The viability, T/C [14] was 120%, the viability, T/C [15] was 124% and the viability, T/C [16] was 109%. The viability, T/C (second compound 3.16 µM, first compound 0.00316 µM) was 125%, the viability, T/C (second compound 3.16 µM, first compound 0.01 µM) was 107% and the viability, T/C (second compound 3.16 µM, first compound 0.0316 µM) was 109%. For the same molecule, the viability, T/C (second compound 3.16 µM, first compound 0.1 µM) was 112%, the viability, T/C (second compound 3.16 µM, first compound 0.316 µM) was 109% and the viability, T/C (second compound 3.16 µM, first compound 1 µM) was 105%. It also gave a viability, T/C (second compound 10 µM, first compound 0.00316 µM) of 102%, a viability, T/C (second compound 10 µM, first compound 0.01 µM) of 93.8% and a viability, T/C (second compound 10 µM, first compound 0.0316 µM) of 92.8%. It also gave a viability, T/C (second compound 10 µM, first compound 0.1 µM) of 99.3%, a viability, T/C (second compound 10 µM, first compound 0.316 µM) of 110% and a viability, T/C (second compound 10 µM, first compound 1 µM) of 93%.

In the case of `CC1(O)CCCC1n1c(=O)c(C(F)F)cc2cnc(NC3CCN(S(C)(=O)=O)CC3)nc21` (centres undefined) + C=CC(=O)N1CCN(c2nc(OCC3CCCN3C)nc3c(F)c(-c4nc(N)cc(C)c4C(F)(F)F)c(Cl)cc23)C(C)C1, the IC50 (second compound 0.00316 µM) is reported as 295 nM, the IC50 (second compound 0.01 µM) is reported as 1340 nM and the IC50 (second compound 0.0316 µM) is reported as 1100 nM. For the same molecule, the IC50 (second compound 0.1 µM) was 1130 nM, the IC50 (second compound 0.316 µM) was 1060 nM and the IC50 (second compound 1 µM) was 1180 nM. For the same molecule, the viability, T/C (second compound 0.00316 µM, first compound 0.0316 µM) was 115%, the viability, T/C (second compound 0.00316 µM, first compound 0.1 µM) was 125% and the viability, T/C (second compound 0.00316 µM, first compound 0.316 µM) was 45.5%. The viability, T/C (second compound 0.00316 µM, first compound 1 µM) was 52.3%, the viability, T/C (second compound 0.00316 µM, first compound 3.16 µM) was 46.1% and the viability, T/C (second compound 0.00316 µM, first compound 10 µM) was 3.51%. For the same molecule, the viability, T/C (second compound 0.01 µM, first compound 0.0316 µM) was 124%, the viability, T/C (second compound 0.01 µM, first compound 0.1 µM) was 115% and the viability, T/C (second compound 0.01 µM, first compound 0.316 µM) was 49.8%. For the same molecule, the viability, T/C (second compound 0.01 µM, first compound 1 µM) was 60.2%, the viability, T/C (second compound 0.01 µM, first compound 3.16 µM) was 49.4% and the viability, T/C (second compound 0.01 µM, first compound 10 µM) was 3.84%. The viability, T/C [1] was 113%, the viability, T/C [2] was 113% and the viability, T/C [3] was 50.3%. The viability, T/C [4] was 51.6%, the viability, T/C (second compound 0.0316 µM, first compound 3.16 µM) was 48.7% and the viability, T/C (second compound 0.0316 µM, first compound 10 µM) was 1.4%. The viability, T/C [5] was 111%, the viability, T/C [6] was 114% and the viability, T/C [7] was 58%. The viability, T/C [8] was 55.4%, the viability, T/C (second compound 0.1 µM, first compound 3.16 µM) was 39.6% and the viability, T/C (second compound 0.1 µM, first compound 10 µM) was 1.02%. The viability, T/C [9] was 117%, the viability, T/C [10] was 107% and the viability, T/C [11] was 54.8%. It also gave a viability, T/C [12] of 49%, a viability, T/C (second compound 0.316 µM, first compound 3.16 µM) of 44.5% and a viability, T/C (second compound 0.316 µM, first compound 10 µM) of 1.06%. It also gave a viability, T/C [13] of 117%, a viability, T/C [14] of 108% and a viability, T/C [15] of 58.1%. It also gave a viability, T/C [16] of 53.2%, a viability, T/C (second compound 1 µM, first compound 3.16 µM) of 46.3% and a viability, T/C (second compound 1 µM, first compound 10 µM) of 2.1%.
